These are literature values, as cited in patent US20140199404A1, “METHOD FOR TREATING CANCER BASED ON LEVEL OF A NUCLEOSIDE TRANSPORTER” (ABRAXIS BIOSCIENCE, LLC, priority 2013, published 2014).

Data set [1] deals with locally advanced pancreatic cancer. The following applies: patients with locally advanced pancreatic cancer.
Data set [2] deals with pancreatic cancer. To be noted: Moore et al. 2007.

As for `O=c1[nH]cc(F)c(=O)[nH]1` [5-FU, 5-fluororuracil], in data set [1], the median overall survival is given as 4.2 months and the “median time to disease progression” value was 0.9 months.

As for `Nc1ccn([C@@H]2O[C@H](CO)[C@@H](O)C2(F)F)c(=O)n1` [gemcitabine], in data set [1], the median overall survival is recorded as 5.7 months and the “median time to disease progression” value is listed as 2.1 months. Besides, in data set [2], the median overall survival was 6.0 months and the “median progression free survival” value is 3.5 months.
